Test results from patent US20090010891A1, “Sepsis Treatment Agent” (Toa Pharmaceutical Co., Ltd., priority 2007, published 2009).

Tested on: sepsis patients
Assay: treatment course of sepsis in blood culture positive patients
Format: in vivo, human
Conditions: observation for 1 year; for Cured / Deaths: number of cases, Bio3 1 g 3 times a day where given
Description: The sepsis treatment agent was administered 3 times a day at 1 g each time using a live bacteria formulation of a mix of the three bacteria. The patients were hospitalized in a psychiatric hospital. The patients were blood culture positive which is a predictor for bacterial translocation. In 4 cases, imipenem/cilastatin (IPM/CS) was administered, and in 4 cases, latamoxef (LMOX) was given. During the observation period, CRP (C reactive protein) increased slightly, and E. coli and enterococcus and the like were detected by culturing blood. After observation for 1 year, two cases died from both groups, and two cases were cured.

Compound	Cured	Deaths	death rate (%)	Cured (listed as latamoxef)	Deaths (listed as latamoxef)
C[C@@H](O)[C@H]1C(=O)N2C(C(=O)O)=C(SCCN=CN)C[C@H]12 [Imipenem, imipenem/cilastatin]	2	2	50%	–	–
CO[C@@]1(NC(=O)C(C(=O)O)c2ccc(O)cc2)C(=O)N2C(C(=O)O)=C(CSc3nnnn3C)CO[C@@H]21 (some centres unmarked) [Latamoxef, latamoxef]	2	2	50%	two	two
